This note sets out measurements from patent publication US9187471B2, “Pyrido [4,3-b] indole and pyrido [3,4-b] indole derivatives and methods of use” (Medivation Technologies, Inc., priority 2010, dated 2015).

The term inhibition denotes the relative decrease from the control value, in per cent.

Experiment [1] has as its target T1, human recombinant histamine H1 receptor (Homo sapiens, UniProt P35367).
T1 construct: expressed in transfected cells; host or cells: CHO-K1
Kind of experiment: Histamine H1 radioligand binding ([3H]Pyrilamine). The note with it: read-out: Histamine H1 Binding (1 μM), percent inhibition of specific binding; compound at 1 μM; 1.2 nM [3H]Pyrilamine. Summed up: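 Results expressed as percent inhibition of specific [3H]pyrilamine binding, counted on filters after washing. Receptor source: CHO-K1 cells expressing recombinant human H1, in modified Tris-HCl buffer (50 mM, pH 7.4; 2 mM MgCl2, 100 mM NaCl, 250 mM sucrose). 1 μM pyrilamine defined non-specific binding.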

The target of experiment [2] is T2, human recombinant serotonin (5-Hydroxytryptamine) 5-HT6 receptor (Homo sapiens, UniProt P50406).
T2 construct: expressed in transfected cells; host or cells: HeLa
Kind of experiment: Serotonin 5-HT6 radioligand binding ([3H]LSD). The note with it: compound at 0.1 μM; read-out: Inhibition of ligand binding, Serotonin 5-HT6 (percent inhibition of specific binding). The text has this: Receptor proteins were filtered and washed, the filters were then counted to determine [3H]LSD specifically bound.

For experiment [3], the target named is T3, human recombinant dopamine D2L receptor (Homo sapiens, UniProt P14416).
T3 construct: expressed in transfected cells; host or cells: CHO
Kind of experiment: Dopamine D2L radioligand binding ([3H]Spiperone). The note with it: 0.16 nM [3H]Spiperone; for inhibition at 0.1 µM: read-out: Dopamine D2L (0.1 μM), percent inhibition of specific binding, compound at 0.1 μM; for inhibition at 1 µM: read-out: Dopamine D2L (1 μM), percent inhibition of specific binding, compound at 1 μM. The protocol: Non-specific binding was estimated in the presence of 10 μM Haloperidol. Receptor proteins were filtered and washed, the filters were then counted to determine [^3H]Spiperone specifically bound.

In experiment [4] the target is T4, human recombinant serotonin (5-Hydroxytryptamine) 5-HT2A receptor (Homo sapiens, UniProt P28223).
T4 construct: expressed in transfected cells; host or cells: CHO-K1
Kind of experiment: Serotonin 5-HT2A radioligand binding ([3H]Ketanserin). The note with it: compound at 0.1 μM; read-out: Inhibition of ligand binding, Serotonin 5-HT2A (percent inhibition of specific binding). The protocol:
Compounds of the invention were incubated with 0.5 nM [^3H]Ketanserin for 60 min at 25° C. Non-specific binding was estimated in the presence of 1 μM Mianserin. Receptor proteins were filtered and washed, the filters were then counted to determine [^3H]Ketanserin specifically bound.

T2 sequence (P50406 whole entry): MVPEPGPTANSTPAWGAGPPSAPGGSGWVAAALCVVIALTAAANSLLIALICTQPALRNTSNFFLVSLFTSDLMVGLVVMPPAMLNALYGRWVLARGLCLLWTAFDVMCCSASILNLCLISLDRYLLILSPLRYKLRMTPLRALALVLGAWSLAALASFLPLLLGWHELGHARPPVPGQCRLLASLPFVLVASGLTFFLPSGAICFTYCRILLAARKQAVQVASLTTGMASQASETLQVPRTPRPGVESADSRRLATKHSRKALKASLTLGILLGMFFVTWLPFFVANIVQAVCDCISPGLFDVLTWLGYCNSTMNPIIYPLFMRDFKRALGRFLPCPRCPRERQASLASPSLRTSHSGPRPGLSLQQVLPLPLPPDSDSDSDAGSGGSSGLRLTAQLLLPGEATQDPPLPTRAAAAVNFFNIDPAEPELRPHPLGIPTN
T1 sequence (P35367 whole entry): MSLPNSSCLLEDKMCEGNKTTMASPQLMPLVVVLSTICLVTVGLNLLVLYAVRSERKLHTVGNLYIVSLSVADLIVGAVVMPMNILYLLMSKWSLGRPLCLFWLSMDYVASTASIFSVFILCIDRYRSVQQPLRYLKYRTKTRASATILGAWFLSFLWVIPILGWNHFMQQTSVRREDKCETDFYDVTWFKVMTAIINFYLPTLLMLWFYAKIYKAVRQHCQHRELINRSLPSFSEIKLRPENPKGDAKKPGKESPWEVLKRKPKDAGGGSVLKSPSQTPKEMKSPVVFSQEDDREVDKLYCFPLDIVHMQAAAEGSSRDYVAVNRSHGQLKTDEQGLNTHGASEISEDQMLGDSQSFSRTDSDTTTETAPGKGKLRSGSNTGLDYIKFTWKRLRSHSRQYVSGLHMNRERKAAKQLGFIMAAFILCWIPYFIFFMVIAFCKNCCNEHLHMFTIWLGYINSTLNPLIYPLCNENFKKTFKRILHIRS
T4 sequence (P28223 whole entry): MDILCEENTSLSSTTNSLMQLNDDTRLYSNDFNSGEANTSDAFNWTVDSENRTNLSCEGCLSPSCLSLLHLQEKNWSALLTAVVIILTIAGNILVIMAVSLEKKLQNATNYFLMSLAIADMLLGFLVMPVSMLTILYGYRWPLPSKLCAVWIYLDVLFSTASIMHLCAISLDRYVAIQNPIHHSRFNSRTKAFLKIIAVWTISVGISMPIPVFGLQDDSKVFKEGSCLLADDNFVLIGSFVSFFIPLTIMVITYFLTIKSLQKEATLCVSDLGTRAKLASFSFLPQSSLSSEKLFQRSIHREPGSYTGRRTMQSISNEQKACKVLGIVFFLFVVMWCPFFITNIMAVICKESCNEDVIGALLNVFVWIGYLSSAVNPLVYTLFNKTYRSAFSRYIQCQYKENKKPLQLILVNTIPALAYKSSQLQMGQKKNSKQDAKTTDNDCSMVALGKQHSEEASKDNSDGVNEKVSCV
T3 sequence (P14416 whole entry): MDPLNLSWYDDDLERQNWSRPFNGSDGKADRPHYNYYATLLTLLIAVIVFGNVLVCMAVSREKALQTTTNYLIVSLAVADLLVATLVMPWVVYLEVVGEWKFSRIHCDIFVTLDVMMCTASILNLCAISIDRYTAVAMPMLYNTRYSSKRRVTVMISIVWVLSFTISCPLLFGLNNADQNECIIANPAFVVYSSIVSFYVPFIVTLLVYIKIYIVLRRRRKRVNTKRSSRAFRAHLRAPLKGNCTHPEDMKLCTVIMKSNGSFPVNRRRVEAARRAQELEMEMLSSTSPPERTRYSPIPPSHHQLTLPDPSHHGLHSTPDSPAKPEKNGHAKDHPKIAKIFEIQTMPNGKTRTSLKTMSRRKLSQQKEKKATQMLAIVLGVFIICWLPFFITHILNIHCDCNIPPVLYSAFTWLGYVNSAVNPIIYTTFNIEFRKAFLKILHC

With `Cc1ccc2c(c1)c1c(n2-c2cscc2C(=O)N(C)C)CCN(C)C1` [Compound No. 152], the inhibition at 1 µM in experiment [1] was 16%. Moreover, the inhibition at 0.1 µM worked out at 22% in experiment [2], 4% in experiment [3] and 31% in experiment [4].
Consider `CC(=O)Nc1ccc(-c2cscc2-n2c3c(c4cc(C)ccc42)CN(C)CC3)cn1` [Compound 56], for which the inhibition at 1 µM in experiment [1] and in experiment [3] was 10% each time. Further, the inhibition at 0.1 µM worked out at 16% in experiment [2] and 31% in experiment [4].
With `Cc1ccc2c(c1)c1c(n2-c2cscc2-c2sccc2C)CCN(C)C1` [Compound 39], the inhibition at 1 µM in experiment [1] worked out at 58%; in experiment [3], 54%. The inhibition at 0.1 µM in experiment [2] came to 65%; in experiment [4], 84%.
For `Cc1ccc2c(c1)c1c(n2-c2cccc(-c3cccn3C)c2)CCN(C)C1` [Compound No. 69, 2,8-dimethyl-5-(3-(1-methyl-1H-pyrrol-2-yl)phenyl)-2,3,4,5-tetrahydro-1H-pyrido[4,3-b]indole], in that order: 42%, 12%, 21% and 99%.
Take `Cc1ccc2c(c1)c1c(n2-c2cscc2-c2ccc(O)nc2)CCN(C)C1` [Compound 49]: the results for the inhibition at 1 µM in experiment [1] and in experiment [3] were 7% and 1%, respectively. Besides, the inhibition at 0.1 µM was 6% in experiment [2] and 18% in experiment [4].
Regarding `Cc1ccc2c(c1)c1c(n2-c2cccc(-c3ccc(C)s3)c2)CCN(C)C1` [Compound No. 64, 2,8-dimethyl-5-(3-(5-methylthiophen-2-yl)phenyl)-2,3,4,5-tetrahydro-1H-pyrido[4,3-b]indole], the inhibition at 1 µM in experiment [1] is 23%; in experiment [3], 24%. The inhibition at 0.1 µM in experiment [2] was -3%; in experiment [4] it was 102%.
For `Cc1ccc2c(c1)c1c(n2-c2ccccc2-c2ccc(C)s2)CCN(C)C1` [Compound No. 81, 2,8-dimethyl-5-(2-(5-methylthiophen-2-yl)phenyl)-2,3,4,5-tetrahydro-1H-pyrido[4,3-b]indole], in that order: 57%, 19%, 44% and 87%.
For `Cc1ccc2c(c1)c1c(n2-c2ccccc2-c2ccc(F)nc2)CCN(C)C1` [Compound No. 84, 5-(2-(6-fluoropyridin-3-yl)phenyl)-2,8-dimethyl-2,3,4,5-tetrahydro-1H-pyrido[4,3-b]indole], in that order: 26%, 8%, 20% and 89%.
Turning to `Cc1ccc2c(c1)c1c(n2-c2cccc(-c3ccc(F)nc3)c2)CCN(C)C1` [Compound 44, 5-(3-(6-fluoropyridin-3-yl)phenyl)-2,8-dimethyl-2,3,4,5-tetrahydro-1H-pyrido[4,3-b]indole], the inhibition at 1 µM in experiment [1] is 41%; in experiment [3] it was 23%. Also, the results for the inhibition at 0.1 µM in experiment [2] and in experiment [4] were 21% and 103%, respectively.
As to `CNC(=O)c1ccc(-c2cscc2-n2c3c(c4cc(C)ccc42)CN(C)CC3)cc1` [Compound No. 155], in experiment [1], the inhibition at 1 µM worked out at 10%. Besides, the inhibition at 0.1 µM in experiment [2] was -6%; in experiment [3], 1%; in experiment [4] it was 27%.
Take `Cc1ccc2c(c1)c1c(n2-c2ccc(-c3ccc(F)cc3)cn2)CCN(C)C1` [Compound No. 140, 5-(5-(4-fluorophenyl)pyridin-2-yl)-2,8-dimethyl-2,3,4,5-tetrahydro-1H-pyrido[4,3-b]indole]: the inhibition at 1 µM was 10% in experiment [1] and -4% in experiment [3]. Moreover, the results for the inhibition at 0.1 µM in experiment [2] and in experiment [4] were 41% and 104%, respectively.
For `CC(=O)Nc1ccc(-c2ccc(-n3c4c(c5cc(C)ccc53)CN(C)CC4)nc2)cn1` [Compound No. 139, N-(6′-(2,8-dimethyl-3,4-dihydro-1H-pyrido[4,3-b]indol-5(2H)-yl)-3,3′-bipyridin-6-yl)acetamide], in that order: 4%, 16%, -1% and 64%.
Taken in the same sequence, the figures for `Cc1ccc2c(c1)c1c(n2-c2ccc(-c3cnc(N(C)C)nc3)cn2)CCN(C)C1` [Compound No. 138, 5-(6-(2,8-dimethyl-3,4-dihydro-1H-pyrido[4,3-b]indol-5(2H)-yl)pyridin-3-yl)-N,N-dimethylpyrimidin-2-amine] were 7%, -2%, -6% and 83%.
For `Cc1ccc2c(c1)c1c(n2-c2ccc(-c3ccc(F)nc3)cn2)CCN(C)C1` [Compound No. 142, 5-(6′-fluoro-3,3′-bipyridin-6-yl)-2,8-dimethyl-2,3,4,5-tetrahydro-1H-pyrido[4,3-b]indole], the inhibition at 1 µM in experiment [1] worked out at 7%; in experiment [3], 13%. The inhibition at 0.1 µM in experiment [2] is -12%; in experiment [4] it was 103%.
Taken in the same sequence, the figures for `Cc1ccc2c(c1)c1c(n2-c2ccccc2-c2ccnn2C)CCN(C)C1` [Compound 32] were 22%, 10%, 5% and 59%.
Consider `Cc1cc(C)c2c(c1)c1c(n2-c2cccc(-c3ccncc3)c2)CCN(C)C1` [Compound 57, 2,6,8-trimethyl-5-(3-(pyridin-4-yl)phenyl)-2,3,4,5-tetrahydro-1H-pyrido[4,3-b]indole], for which the figures for the inhibition at 1 µM in experiment [1] and in experiment [3] were 45% and 31%, respectively. In addition, the inhibition at 0.1 µM in experiment [2] is 15%; in experiment [4] it was 70%.
For `CNC(=O)c1ccc(-c2ccccc2-n2c3c(c4cc(C)ccc42)CN(C)CC3)cn1` [Compound No. 71, 5-(2-(2,8-dimethyl-3,4-dihydro-1H-pyrido[4,3-b]indol-5(2H)-yl)phenyl)-N-methylpicolinamide], in that order: 18%, 10%, -7% and 1%.
Turning to `Cc1ccc2c(c1)c1c(n2-c2cscc2-c2ccnn2C)CCN(C)C1` [Compound No. 150], the inhibition at 1 µM in experiment [1] was 22%. Also, the inhibition at 0.1 µM in experiment [2] was 14%; in experiment [3], 5%; in experiment [4], 53%.
For the compound `Cc1ccc2c(c1)c1c(n2-c2cscc2-c2cnn(C)c2)CCN(C)C1` [Compound 30], the inhibition at 1 µM in experiment [1] was found to be 23%; in experiment [3] it was 4%. The inhibition at 0.1 µM worked out at 33% in experiment [2] and 92% in experiment [4].
For the compound `Cc1ccc2c(c1)c1c(n2-c2ccc(-c3ccnn3C)cn2)CCN(C)C1` [Compound No. 146, 2,8-dimethyl-5-(5-(1-methyl-1H-pyrazol-5-yl)pyridin-2-yl)-2,3,4,5-tetrahydro-1H-pyrido[4,3-b]indole], the inhibition at 1 µM is 8% in experiment [1] and 5% in experiment [3]. The results for the inhibition at 0.1 µM in experiment [2] and in experiment [4] were -17% and 57%, respectively.
For `Cc1ccc2c(c1)c1c(n2-c2cscc2-c2cccc3[nH]ncc23)CCN(C)C1` [Compound 41], in that order: 28%, 24%, 36% and 84%.
In the case of `Cc1ccc2c(c1)c1c(n2-c2ccc(-c3cccc4[nH]ncc34)cn2)CCN(C)C1` [Compound No. 147, 5-(5-(1H-indazol-4-yl)pyridin-2-yl)-2,8-dimethyl-2,3,4,5-tetrahydro-1H-pyrido[4,3-b]indole], the inhibition at 1 µM in experiment [1] was found to be 8%; in experiment [3], 33%. Also, the inhibition at 0.1 µM came out at 15% in experiment [2] and 62% in experiment [4].
As for `Cc1ccc2c(c1)c1c(n2-c2ccc3ccncc3c2)CCN(C)C1` [Compound No. 74, 5-(isoquinolin-7-yl)-2,8-dimethyl-2,3,4,5-tetrahydro-1H-pyrido[4,3-b]indole], the inhibition at 1 µM in experiment [1] was 18%; in experiment [3], 56%. For the same compound, the figures for the inhibition at 0.1 µM in experiment [2] and in experiment [4] were 14% and 34%, respectively.
On to `Cc1ccc2c(c1)c1c(n2-c2cccc(-c3cncc4ccccc34)c2)CCN(C)C1` [Compound No. 67, 5-(3-(isoquinolin-4-yl)phenyl)-2,8-dimethyl-2,3,4,5-tetrahydro-1H-pyrido[4,3-b]indole], for which the inhibition at 1 µM was 32% in experiment [1] and 61% in experiment [3]. The inhibition at 0.1 µM in experiment [2] amounted to 29%; in experiment [4], 75%.
